Reference: patent JP2016199536A, “筋肉増強およびメタボリックシンドローム改善ならびにqol改善のための組成物” (NUTRITION ACT CO Ltd, priority 2015, dated 2016)

Assays:
[1] = Plasma leptin concentration in high-fat-diet mice (Example 5); type: in vivo, mouse; conditions: 10 weeks, C57BL/6J male mice, 6-compartment cage, high-fat diet with oleanolic acid or oleuropein 50 mg/kg diet, or Oleavita 1000 mg/kg diet
[2] = Body fat reduction in high-fat-diet mice, epididymal fat weight (Example 4); type: in vivo, mouse; conditions: 10 weeks, C57BL/6J male mice, 6-compartment cage, high-fat diet with oleanolic acid or oleuropein 50 mg/kg diet, or Oleavita 1000 mg/kg diet
[3] = test system: myoblasts (筋芽細胞); assay: Myoblast differentiation promotion test, count of beating myotubes (Example 3); type: cell-based; conditions: 1 μM, 10 days after cell seeding, cells from ICR mouse fetal thigh muscle
[4] = Plasma insulin concentration in high-fat-diet mice (Example 5); type: in vivo, mouse; conditions: 10 weeks, C57BL/6J male mice, 6-compartment cage, high-fat diet with oleanolic acid or oleuropein 50 mg/kg diet, or Oleavita 1000 mg/kg diet

| SMILES | plasma leptin concentration [1] | fat-reducing effect compared with high-fat diet group (HF) [2] | beating myotube cells compared with control [3] | suppression of plasma insulin concentration [4] |
| --- | --- | --- | --- | --- |
| CC1(C)CC[C@]2(C(=O)O)CC[C@]3(C)C(=CC[C@@H]4[C@@]5(C)CC[C@H](O)C(C)(C)[C@@H]5CC[C@]43C)[C@@H]2C1 [オレアノール酸] | 高値 | 脂肪減少効果が見られなかった | わずかに増加 | 抑制効果がなかった |
| C/C=C1/[C@H](O[C@@H]2O[C@H](CO)[C@@H](O)[C@H](O)[C@H]2O)OC=C(C(=O)OC)[C@H]1CC(=O)OCCc1ccc(O)c(O)c1 [オレウロペイン] | 高値 | 脂肪減少効果が見られなかった | わずかに増加 | 抑制効果がなかった |
